# How the values were obtained:
# Rat white adipocytes = assay: Inhibition of the differentiation of adipocytes (Oil Red O); assay type: cell-based; settings: 100 nM test compound, 5 days, Oil Red O ABS550, control = 100%, blank = 0%, Table 3; for activity at 0.1 µM: Rattus norvegicus, Adipocyte, 120 h, read-out: Rate of Differentiation (%)
# Method: Rat white adipocytes contained in the white adipocyte culture kit purchased from HOKUDO were used. As the medium for proliferation and for differentiation-inducing, the medium contained in the white adipocyte culture kit purchased from HOKUDO was used. The cells in the present experiment were cultured in a CO2 incubator (37° C., 95% R.H., 5% CO2).
# Immediately after arrival of the purchased cells, all medium for transportation was discarded and replaced with 5 ml of proliferation medium (/25 cm^2-flask) and the cells were cultured for one day. Then, a cell suspension was prepared with proliferation medium so as to be 83,000 cells/mL, and the cell suspension was plated into a type I 96-well collagen-coated microplate (SUMITOMO BAKELITE CO., ltd.) so as to be 5,000 cells/well (60 μL/well).
# On the next day, all the proliferation medium was discarded and replaced with 147 μL/well of differentiation-inducing medium. Further, 1) in the group treated with the test compound, 3 μL/well of the solution, in which a test compound (100 μM) was dissolved in DMSO solution and diluted with differentiation-inducing medium by 20 times (final concentration of the test compound: 100 nM, final concentration of DMSO solution: 0.1% (v/v)), were added to the well where the cells were plated. 2) In the control group, 3 μL/well of DMSO solution that was diluted with differentiation-inducing medium by 20 times (final concentration of DMSO: 0.1% (v/v)) were added to the well where the cells were plated. Further, 3) in the blank group, 3 μL/well of DMSO solution that was diluted with differentiation-inducing medium by 20 times (final concentration: 0.1% (v/v)), was added to the blank well.
# After culturing for 5 days, all differentiation-inducing medium was discarded and replaced with 60 μL of 10% (v/v) formaldehyde solution (for fixation) in each well and the cells were kept stationary for 20 min at room temperature. After this, the fixative solution was discarded and replaced with 60 μL of 0.2% (v/v) Triton X (Sigma-Aldrich Japan K. K.) solution in each well and kept stationary for 5 min at room temperature. Then all Triton X solution was discarded and replaced with 60 μL of 60% (v/v) isopropanol solution containing dissolved Oil Red O (Sigma-Aldrich Japan K. K.) so as to be 0.3%, which was adipose tissue staining solution, and the well was left stationary for 10 min at room temperature. After the adipose tissue staining solution was discarded, the well was washed twice with 60 JIL of 60% isopropanol solution. Then, 100 μL of the DMSO solution were added to each well and stirred for 5 min at room temperature, The absorbance was measured at 550 nm (ABS550) with a multi-plate reader (LabSystems), and the stained amount with Oil Red O was determined. The measured level at ABS550 in the control group was defined as 100%, while the level at ABS550 in the blank group was defined as 0%. The differentiation rate (%) of the adipocytes treated with the test compound was calculated.
# leptin production = assay: Enhancing activity for leptin production in adipocytes (ELISA); assay type: cell-based, rat; settings: Rattus norvegicus, Adipocyte, 24 h, leptin concentration as % of control group, read-out: Facilitating activity to produce leptin
# Method: Hanks solution was used for collection of adipose tissue. The Hanks solution was prepared by filtration of a mixed solution (pH: 7.5) of 120 mM NaCl, 4.8 mM KCl, 0.74 mM MgSO4, 0.30 mM Na2HPO4, 0.40 mM KH2PO4, 20 mM HEPES, 0.05% (w/v) glucose, 2% (w/v) BSA (Sigma-Aldrich Japan K. K., Cat. No. A7888), 0.95 mM CaCl2, 4.17 mM NaHCO3 and 1% (v/v) penicillin-streptomycin liquid (GIBCO BRL, Cat. No. 15140-122). The adipocytes were cultured in Dulbecco's modified Eagle's medium (GIBCO BRL, Cat. No. 11995-040) mixed with DMEM/F-12 (GIBCO BRL, Cat. No. 11320-033) at a ratio of 1:1, and added 0.2% (v/v) Hanks solution, 0.2 μg/L sodium selenite (GIBCO BRL, Cat. No. 13012-018), 0.002% (v/v) ethanolamine, 25 mM HEPES and 1% (v/v) penicillin-streptomycin liquid (GIBCO BRL, Cat. No. 15140-122). As many as possible of the other reagents used were special grade. In this experiment, the cells were cultured in a CO2 incubator (37° C., 95% humidity, 5% CO2).
# Male Wistar Imamichi rats of 6 weeks old were sacrificed by bleeding following decapitation, and adipose tissue was removed from the epididymis and sectioned after the vessels were removed in warmed Hanks solution at 37° C. and were weighed. One (1) mL of Hanks solution containing 10 mg collagenase (Wako Pure Chemical Industries, Ltd., 034-10533) was added to the adipose tissue prepared. The solution was transferred into a tube having a volume of 50 mL, and the cells were evenly dispersed by incubation under gentle shaking at 37° C., 90 rpm, for 50 min. Then 20 mL of Hanks solution were added and filtrated through Nylon-mesh with a mesh diameter of 200 μm for removal of undigested tissue pieces. The floating adipocytes were separated from sediments and substances located in the lower layer by centrifugation at 1,000 rpm for 1 min at room temperature. The sediment and 22 mL of the low layer were pulled out with a probe, and the floating adipocytes were recovered. This procedure was repeated twice with Hanks solution and for 4 times with the culture medium. After these procedures the adipocytes were suspended in the culture medium at a volume of 60 mL per 1 g of the adipose tissue weighed previously. 100 μL of the suspended solution were plated in each well of a 96-well microplate (ASAHI TECHNO GLASS Corp.) In the group treated with the test compound, 1 μL/well of DMSO solution containing the dissolved the test compound at concentrations of 200 μM, 20 μM, 2 μM and 0.2 μM (final concentrations of the test compound: 1 μM, 100 nM, 10 nM and 1 nM, respectively) was plated in each of the well. In the control group, 1 μL/well of DMSO (final concentration: 0.1% (v/v)) was plated in each well. The plate was placed stationary in a CO2 incubator for 1 hr or longer, and the contents in the solution were equilibrated at 37° C. After they were equilibrated, the solution in each well was stirred with a magnetic stirrer in a water bath and the suspended solution maintained at 37° C. was plated into each well of the plate at 100 μL/well. After incubation of the cells for 24 hr, the suspended solution of cells was filtrated through a filter for the microplate, MultiScreen (MILLOPORE, MDV-N65). The concentration of leptin in the filtrated solution was determined with ELISA methods by using a Rat Leptin Determination Kit-IBL (Immuno-Biological Laboratories Co., Ltd., Cat. No. 17195). The facilitating activity of the compound to produce leptin was calculated from the following equation based on the concentration of leptin determined.
# Facilitating Activity of the Compound to Produce Leptin (%)=(A/B)×100
# A: Concentration of Leptin in the Treated Group with the Test Compound.
# B: Concentration of Leptin in the Control Group.
molecule,measurement,setting,value
"CC(C)(C)OC(=O)N1CCN(c2ccc(NC(=O)c3cc([N+](=O)[O-])ccc3Cl)cc2)CC1 [Example 132, N-[4-(4-tert-Butoxycarbonylpiperazin-1-yl)phenyl]-(2-chloro-5-nitrophenyl)carboxamide]",activity at 0.1 µM,Rat white adipocytes,26.9%
same,activity at 1 µM,leptin production; 1 μM,127%
same,activity at 0.001 µM,leptin production; 1 nm,123%
same,activity at 0.01 µM,leptin production; 10 nm,137%
same,activity at 0.1 µM,leptin production; 100 nm,119%
"Nc1ccc(NC(=O)c2cc([N+](=O)[O-])ccc2Cl)cc1 [Example 180, N-(4-Aminophenyl)-(2-chloro-5-nitrophenyl)carboxamide]",Rate of Differentiation (%),Rat white adipocytes,59.1%
"CCCCN(C)c1ccc(-c2ccc(NC(=O)c3cc([N+](=O)[O-])ccc3Cl)cc2)cc1 [Example 210, N-[4-[4-(N-Butyl-N-methylamino)phenyl]phenyl]-(2-chloro-5-nitrophenyl)carboxamide]",activity at 0.1 µM,Rat white adipocytes,47.6%
"CCCN(C)c1ccc(-c2ccc(NC(=O)c3cc([N+](=O)[O-])ccc3Cl)cc2)cc1 [Example 213, N-[4-[4-(N-Methyl-N-propylamino)phenyl]phenyl]-(2-chloro-5-nitrophenyl)carboxamide]",activity at 0.1 µM,Rat white adipocytes,47.4%
"CCCCCN(C)c1ccc(-c2ccc(NC(=O)c3cc([N+](=O)[O-])ccc3Cl)cc2)cc1 [Example 215, N-[4-[4-(N-Methyl-N-pentylamino)phenyl]phenyl]-(2-chloro-5-nitrophenyl)carboxamide]",activity at 0.1 µM,Rat white adipocytes,45.2%
"O=C(Nc1ccc(C(O)(C(F)(F)F)C(F)(F)F)cc1)c1cc([N+](=O)[O-])ccc1Cl [Example 237, N-[4-(2,2,2-Trifluoro-1-hydroxy-1-trifluoromethylethyl)phenyl]-(2-chloro-5-nitrophenyl)carboxamide]",activity at 0.1 µM,Rat white adipocytes,46.9%
"CN1c2ccccc2N=C(c2ccc(NC(=O)c3cc([N+](=O)[O-])ccc3Cl)cc2)c2cc3c(cc21)C(C)(C)CCC3(C)C [Example 240, N-[4-(5,7,7,10,10-Pentamethyl-7,8,9,10-tetrahydro-5H-5,13-diazabenzo[4,5]cyclohepta[1,2-b]naphthalen-12-yl)phenyl]-(2-chloro-5-nitrophenyl)carboxamide]",activity at 0.1 µM,Rat white adipocytes,35.2%
"NC(=O)Nc1ccc(-c2ccc(NC(=O)c3cc([N+](=O)[O-])ccc3Cl)cc2)cc1 [Example 243, N-[4-[4-(Aminocarbonylamino)phenyl]phenyl]-(2-chloro-5-nitrophenyl)carboxamide]",activity at 0.1 µM,Rat white adipocytes,41.1%
"COc1cccc(NC(=O)Nc2ccc(-c3ccc(NC(=O)c4cc([N+](=O)[O-])ccc4Cl)cc3)cc2)c1 [Example 247, N-[4-[4-[(3-Methoxyphenyl)aminocarbonylamino]phenyl]phenyl]-(2-chloro-5-nitrophenyl)carboxamide]",activity at 0.1 µM,Rat white adipocytes,54%
"O=C(NC(=S)Nc1ccc(-c2ccc(NC(=O)c3cc([N+](=O)[O-])ccc3Cl)cc2)cc1)c1ccccc1 [Example 250, N-[4-[4-(Benzoylaminothiocarbonylamino)phenyl]phenyl]-(2-chloro-5-nitrophenyl)carboxamide]",activity at 0.1 µM,Rat white adipocytes,40.8%
"Nc1nc(-c2ccc(NC(=O)c3cc([N+](=O)[O-])ccc3Cl)cc2)cs1 [Example 255, N-[4-(2-Aminothiazol-4-yl)phenyl]-(2-chloro-5-nitrophenyl)carboxamide]",activity at 0.1 µM,Rat white adipocytes,55%
"CC(C)(C)OC(=O)Nc1ccc2nc(NC(=O)c3cc([N+](=O)[O-])ccc3Cl)sc2c1 [Example 260, N-[(6-tert-Butoxycarbonylamino)benzothiazol-2-yl]-(2-chloro-5-nitrophenyl)carboxamide]",Rate of Differentiation (%),Rat white adipocytes,84.6%
"CC(=O)Nc1nc(-c2ccc(NC(=O)c3cc([N+](=O)[O-])ccc3Cl)cc2)cs1 [Example 265, N-[4-(2-Acetylaminothiazol-4-yl)phenyl]-(2-chloro-5-nitrophenyl)carboxamide]",activity at 0.1 µM,Rat white adipocytes,80.8%
"CC(=O)Nc1nc(-c2cccc(NC(=O)c3cc([N+](=O)[O-])ccc3Cl)c2)cs1 [Example 266, N-[3-(2-Acetylaminothiazol-4-yl)phenyl]-(2-chloro-5-nitrophenyl)carboxamide]",activity at 0.1 µM,Rat white adipocytes,63.5%
"CCOC(=O)NC(=S)NCCc1ccc(NC(=O)c2cc([N+](=O)[O-])ccc2Cl)cc1 [Example 272, N-[4-(2-Ethoxycarbonylaminothiocarbonylaminoethyl)phenyl]-(2-chloro-5-nitrophenyl)carboxamide]",activity at 0.1 µM,Rat white adipocytes,41.7%
"O=C(Nc1cccc(CCO)c1)c1cc([N+](=O)[O-])ccc1Cl [Example 275, N-[3-(2-Hydroxyethyl)phenyl]-(2-chloro-5-nitrophenyl)carboxamide]",activity at 0.1 µM,Rat white adipocytes,47.9%
N-[4-(3-Methanesulfonylaminophenyl)thioazol-2-yl]-(2-chloro-5-nitrophenyl)carboxamide [Example 278],Rate of Differentiation (%),Rat white adipocytes,68.6%
